The supplement of paper PMC10627819

Columns and labels:
[1] = test system: S. pneumoniae D39V; assay: Bliss interaction score (quartile over a dose matrix) (fitness difference); higher = more antagonism (negative = synergy)
Procedure, shortened: (§1)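 The Bliss score is observed minus expected fitness under the product model, reported as quartiles over technical, biological and donor/recipient replicates. Fitness is the OD595 at entry into stationary phase divided by the plate's robust no-drug mean and capped at 1. Single-drug fitness was inferred from combination data.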

[2] = test system: S. aureus Newman; assay: as above
Procedure, shortened: as §1

[3] = test system: B. subtilis 168; assay: as above
Procedure, shortened: as §1

[4] = test system: S. aureus DSM 20231; assay: as above
Procedure, shortened: as §1

[5] = test system: S. pneumoniae D39V; assay: fitness (endpoint OD595 vs no drug) (fraction); higher = more growth
Procedure, shortened: (§2)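 Volumes were 30 µl per well, or 55 µl for S. pneumoniae, in 384-well plates inoculated at OD595 0.01. Media were TSB, LB Lennox or CY at 37 °C, and OD595 was read every 30 min for 14 h with first-reading background subtraction. Fitness is the ratio of optical density at stationary-phase entry to the robust mean of no-drug controls. That ratio is capped at 1.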

[6] = test system: B. subtilis 168; assay: as above
Procedure, shortened: as §2

[7] = test system: S. aureus DSM 20231; assay: as above
Procedure, shortened: as §2

[8] = first compound 0.125 µg/mL, partner 0.0625 µg/mL
[9] = first compound 0.125 µg/mL, partner 0.125 µg/mL
[10] = first compound 0.125 µg/mL, partner 0.25 µg/mL
[11] = first compound 0.25 µg/mL, partner 0.0625 µg/mL
[12] = first compound 0.25 µg/mL, partner 0.125 µg/mL
[13] = first compound 0.25 µg/mL, partner 0.25 µg/mL
[14] = first compound 0.5 µg/mL, partner 0.0625 µg/mL
[15] = first compound 0.5 µg/mL, partner 0.125 µg/mL
[16] = first compound 0.5 µg/mL, partner 0.25 µg/mL
[17] = first compound 0.125 µg/mL, partner 85.5 µg/mL
[18] = first compound 0.125 µg/mL, partner 171 µg/mL
[19] = first compound 0.125 µg/mL, partner 342 µg/mL
[20] = first compound 0.25 µg/mL, partner 85.5 µg/mL
[21] = first compound 0.25 µg/mL, partner 171 µg/mL
[22] = first compound 0.25 µg/mL, partner 342 µg/mL
[23] = first compound 0.5 µg/mL, partner 85.5 µg/mL
[24] = first compound 0.5 µg/mL, partner 171 µg/mL
[25] = first compound 0.5 µg/mL, partner 342 µg/mL
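Throughout, for Bliss interaction score (quartile over a dose matrix): first quartile when negative (synergy) and third quartile when positive (antagonism).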

SMILES: CC(=O)NC[C@H]1CN(c2ccc(N3CCOCC3)c(F)c2)C(=O)O1 [Linezolid] + CC1=C\[C@@H](O)CC(=O)Cc2nc(co2)C(=O)N2CCC=C2C(=O)O[C@H](C(C)C)[C@H](C)/C=C/C(=O)NC\C=C\1 [Virginiamycin M1]
- Bliss interaction score [1]: -0.0638
- Bliss interaction score [2]: 0.0286
- Bliss interaction score [3]: 0.0733
- Bliss interaction score [4]: 0.0505
- fitness ([5]; first compound 0.105 µg/mL, partner 0.5 µg/mL): 0.849
- fitness ([5]; first compound 0.105 µg/mL, partner 1 µg/mL): 0.881
- fitness ([5]; first compound 0.105 µg/mL, partner 2 µg/mL): 0.856
- fitness ([5]; first compound 0.2 µg/mL, partner 0.15 µg/mL, one replicate): 0.829
- fitness ([5]; first compound 0.2 µg/mL, partner 0.3 µg/mL, one replicate): 0.825
- fitness ([5]; first compound 0.2 µg/mL, partner 0.5 µg/mL, one replicate): 0.861
- fitness ([5]; first compound 0.2 µg/mL, partner 1 µg/mL, one replicate): 0.81
- fitness ([5]; first compound 0.2 µg/mL, partner 2 µg/mL): 0.775
- fitness ([5]; first compound 0.21 µg/mL, partner 0.5 µg/mL): 0.763
- fitness ([5]; first compound 0.21 µg/mL, partner 1 µg/mL): 0.756
- fitness ([5]; first compound 0.21 µg/mL, partner 2 µg/mL): 0.769
- fitness ([5]; first compound 0.4 µg/mL, partner 0.15 µg/mL, one replicate): 0.738
- fitness ([5]; first compound 0.4 µg/mL, partner 0.3 µg/mL, one replicate): 0.721
- fitness ([5]; first compound 0.4 µg/mL, partner 0.5 µg/mL, one replicate): 0.785
- fitness ([5]; first compound 0.4 µg/mL, partner 1 µg/mL, one replicate): 0.67
- fitness ([5]; first compound 0.4 µg/mL, partner 2 µg/mL): 0.677
- fitness ([5]; first compound 0.42 µg/mL, partner 0.5 µg/mL): 0.496
- fitness ([5]; first compound 0.42 µg/mL, partner 1 µg/mL): 0.486
- fitness ([5]; first compound 0.42 µg/mL, partner 2 µg/mL): 0.39
- fitness ([5]; first compound 0.8 µg/mL, partner 0.15 µg/mL, one replicate): 0.546
- fitness ([5]; first compound 0.8 µg/mL, partner 0.3 µg/mL, one replicate): 0.577
- fitness ([5]; first compound 0.8 µg/mL, partner 0.5 µg/mL, one replicate): 0.562
- fitness ([5]; first compound 0.8 µg/mL, partner 1 µg/mL, one replicate): 0.376
- fitness ([5]; first compound 0.8 µg/mL, partner 2 µg/mL): 0.458
- fitness ([6]; first compound 0.0625 µg/mL, partner 0.0625 µg/mL, one replicate): 0.851
- fitness ([6]; first compound 0.0625 µg/mL, partner 0.125 µg/mL, one replicate): 0.915
- fitness ([6]; first compound 0.0625 µg/mL, partner 0.25 µg/mL, one replicate): 0.879
- fitness [6, 8]: 0.57
- fitness [6, 9]: 0.572
- fitness [6, 10]: 0.578
- fitness [6, 11]: 0.0596
- fitness [6, 12]: 0.0652
- fitness [6, 13]: 0.0843
- fitness [6, 14]: 0.0436
- fitness [6, 15]: 0.0429
- fitness [6, 16]: 0.0502
- fitness [7, 8]: 0.884
- fitness [7, 9]: 0.951
- fitness [7, 10]: 0.826
- fitness ([7]; first compound 0.125 µg/mL, partner 0.5 µg/mL, one replicate): 0.873
- fitness ([7]; first compound 0.125 µg/mL, partner 1 µg/mL, one replicate): 0.759
- fitness [7, 11]: 0.589
- fitness [7, 12]: 0.614
- fitness [7, 13]: 0.638
- fitness ([7]; first compound 0.25 µg/mL, partner 0.5 µg/mL, one replicate): 0.675
- fitness ([7]; first compound 0.25 µg/mL, partner 1 µg/mL, one replicate): 0.63
- fitness [7, 14]: 0.186
- fitness [7, 15]: 0.156
- fitness [7, 16]: 0.196
- fitness ([7]; first compound 0.5 µg/mL, partner 0.5 µg/mL, one replicate): 0.262
- fitness ([7]; first compound 0.5 µg/mL, partner 1 µg/mL, one replicate): 0.296
- fitness ([7]; first compound 1 µg/mL, partner 0.0625 µg/mL, one replicate): 0.0385
- fitness ([7]; first compound 1 µg/mL, partner 0.125 µg/mL, one replicate): 0.0443
- fitness ([7]; first compound 1 µg/mL, partner 0.25 µg/mL, one replicate): 0.0419

SMILES: CC(=O)NC[C@H]1CN(c2ccc(N3CCOCC3)c(F)c2)C(=O)O1 [Linezolid] + CCCCCCCCCC(=O)N[C@@H]1[C@H]([C@@H]([C@H](O[C@H]1OC2=C3C=C4C=C2OC5=C(C=C(C=C5)[C@H]([C@H]6C(=O)N[C@@H](C7=C(C(=CC(=C7)O)OC8[C@H]([C@H]([C@@H]([C@H](O8)CO)O)O)O)C9=C(C=CC(=C9)[C@H](C(=O)N6)NC(=O)[C@@H]4NC(=O)[C@@H]1C2=CC(=CC(=C2)OC2=C(C=CC(=C2)[C@H](C(=O)N[C@H](CC2=CC(=C(O3)C=C2)Cl)C(=O)N1)N)O)O)O)C(=O)O)O[C@H]1[C@@H]([C@H]([C@@H]([C@H](O1)CO)O)O)NC(=O)C)Cl)CO)O)O [Teicoplanin]
- Bliss interaction score ([1]; main component drawn): -0.0593
- Bliss interaction score ([2]; main component drawn): 0.116
- Bliss interaction score ([3]; main component drawn): -0.0585
- Bliss interaction score ([4]; main component drawn): 0.109
- fitness ([7]; first compound 0.125 µg/mL, partner 0.1562 µg/mL, main component drawn): 0.852
- fitness ([7]; first compound 0.125 µg/mL, partner 0.3125 µg/mL, main component drawn): 0.989
- fitness ([7]; first compound 0.125 µg/mL, partner 0.625 µg/mL, main component drawn): ≥ 1
- fitness ([7]; first compound 0.25 µg/mL, partner 0.1562 µg/mL, main component drawn): 0.649
- fitness ([7]; first compound 0.5 µg/mL, partner 0.1562 µg/mL, main component drawn): 0.158
- fitness ([7]; first compound 1 µg/mL, partner 0.1562 µg/mL, one replicate, main component drawn): 0.0359
- fitness ([7]; first compound 1 µg/mL, partner 0.3125 µg/mL, one replicate, main component drawn): 0.0319
- fitness ([7]; first compound 1 µg/mL, partner 0.625 µg/mL, one replicate, main component drawn): 0.0292

SMILES: CC(=O)NC[C@H]1CN(c2ccc(N3CCOCC3)c(F)c2)C(=O)O1 [Linezolid] + CCN(CC)CCOC(=O)c1ccc(N)cc1 [Procaine]
- Bliss interaction score [1]: 0.0684
- Bliss interaction score [2]: 0.111
- Bliss interaction score [3]: 0.0668
- Bliss interaction score [4]: -0.0676
- fitness ([5]; first compound 0.105 µg/mL, partner 85.5 µg/mL): 0.824
- fitness ([5]; first compound 0.105 µg/mL, partner 171 µg/mL): 0.816
- fitness ([5]; first compound 0.105 µg/mL, partner 342 µg/mL): 0.801
- fitness ([5]; first compound 0.2 µg/mL, partner 85.5 µg/mL, one replicate): 0.792
- fitness ([5]; first compound 0.2 µg/mL, partner 171 µg/mL, one replicate): 0.839
- fitness ([5]; first compound 0.2 µg/mL, partner 342 µg/mL, one replicate): 0.778
- fitness ([5]; first compound 0.21 µg/mL, partner 85.5 µg/mL): 0.728
- fitness ([5]; first compound 0.21 µg/mL, partner 171 µg/mL): 0.719
- fitness ([5]; first compound 0.21 µg/mL, partner 342 µg/mL): 0.699
- fitness ([5]; first compound 0.4 µg/mL, partner 85.5 µg/mL, one replicate): 0.609
- fitness ([5]; first compound 0.4 µg/mL, partner 171 µg/mL, one replicate): 0.669
- fitness ([5]; first compound 0.4 µg/mL, partner 342 µg/mL, one replicate): 0.621
- fitness ([5]; first compound 0.42 µg/mL, partner 85.5 µg/mL): 0.579
- fitness ([5]; first compound 0.42 µg/mL, partner 171 µg/mL): 0.569
- fitness ([5]; first compound 0.42 µg/mL, partner 342 µg/mL): 0.535
- fitness ([5]; first compound 0.8 µg/mL, partner 85.5 µg/mL, one replicate): 0.245
- fitness ([5]; first compound 0.8 µg/mL, partner 171 µg/mL, one replicate): 0.335
- fitness ([5]; first compound 0.8 µg/mL, partner 342 µg/mL, one replicate): 0.271
- fitness ([6]; first compound 0.0625 µg/mL, partner 85.5 µg/mL, one replicate): 0.828
- fitness ([6]; first compound 0.0625 µg/mL, partner 171 µg/mL, one replicate): 0.846
- fitness ([6]; first compound 0.0625 µg/mL, partner 342 µg/mL, one replicate): 0.858
- fitness [6, 17]: 0.587
- fitness [6, 18]: 0.613
- fitness [6, 19]: 0.569
- fitness [6, 20]: 0.101
- fitness [6, 21]: 0.0992
- fitness [6, 22]: 0.0813
- fitness [6, 23]: 0.022
- fitness [6, 24]: 0.0423
- fitness [6, 25]: 0.0154
- fitness [7, 17]: 0.839
- fitness [7, 18]: 0.832
- fitness [7, 19]: 0.768
- fitness [7, 20]: 0.574
- fitness [7, 21]: 0.643
- fitness [7, 22]: 0.582
- fitness [7, 23]: 0.15
- fitness [7, 24]: 0.193
- fitness [7, 25]: 0.143
- fitness ([7]; first compound 1 µg/mL, partner 85.5 µg/mL, one replicate): 0.0561
- fitness ([7]; first compound 1 µg/mL, partner 171 µg/mL, one replicate): 0.0334
- fitness ([7]; first compound 1 µg/mL, partner 342 µg/mL, one replicate): 0.05
